Assay results taken from patent publication US20260297085A1, “1 H-PYRROLO[2,3-B]PYRIDIN-4-YL]-2-OXOPYRROLIDINE-3-CARBONITRILE DERIVATIVES AS TYROSINE KINASE 2 (TYK2) INHIBITORS FOR THE TREATMENT OF INFLAMMATORY DISEASES” (BIOGEN MA INC., priority 2023, published 2026).
Where a name gives a salt, the structure may show the parent alone.

What was measured:
[1] = biological target: T1, human TYK2 kinase domain (JH1) (Homo sapiens, UniProt P29597); assay: JH1 biochemical assay for TYK2 (ADP-Glo kinase assay, recombinant JH1 catalytic domain, JAK3-974 peptide, 10 μM ATP)
T1 construct: recombinantly generated catalytic kinase (also known as JH1) domain of human JAK1, JAK2, JAK3 and TYK2
T1 sequence (P29597 897-1176 limits assumed): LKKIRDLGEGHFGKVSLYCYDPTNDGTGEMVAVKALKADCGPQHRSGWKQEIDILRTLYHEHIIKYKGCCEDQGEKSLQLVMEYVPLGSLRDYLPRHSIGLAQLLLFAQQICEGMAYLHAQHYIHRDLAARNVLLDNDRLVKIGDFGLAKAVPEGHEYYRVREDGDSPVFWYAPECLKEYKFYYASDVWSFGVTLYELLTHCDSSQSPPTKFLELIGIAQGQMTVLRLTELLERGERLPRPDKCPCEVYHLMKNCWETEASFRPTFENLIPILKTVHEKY
How it was run: (§1)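 Enzyme levels: JAK1 4 nM, JAK2 0.2 nM, JAK3 0.3 nM, TYK2 2 nM. Peptide substrate at 50 μM. Reactions ran 100 minutes; ADP formed was converted to luciferase luminescence after ATP depletion. Compounds tested from 10 μM or 1 μM top, 11-point 3-fold dilutions; IC50 from 4-parameter logistic fit of normalized percent activity.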

[2] = biological target: T2, human JAK1 kinase domain (JH1) (Homo sapiens, UniProt P23458); assay: JH1 biochemical assay for JAK1 (ADP-Glo kinase assay, recombinant JH1 catalytic domain, JAK3-342 peptide, 35 μM ATP)
T2 construct: recombinantly generated catalytic kinase (also known as JH1) domain of human JAK1, JAK2, JAK3 and TYK2
How it was run: as §1

[3] = biological target: T3, human JAK2 kinase domain (JH1) (Homo sapiens, UniProt O60674); assay: JH1 biochemical assay for JAK2 (ADP-Glo kinase assay, recombinant JH1 catalytic domain, JAK3-974 peptide, 15 μM ATP)
T3 construct: recombinantly generated catalytic kinase (also known as JH1) domain of human JAK1, JAK2, JAK3 and TYK2
How it was run: as §1

[4] = biological target: T4, human JAK3 kinase domain (JH1) (Homo sapiens, UniProt P52333); assay: JH1 biochemical assay for JAK3 (ADP-Glo kinase assay, recombinant JH1 catalytic domain, JAK3-974 peptide, 4 μM ATP)
T4 construct: recombinantly generated catalytic kinase (also known as JH1) domain of human JAK1, JAK2, JAK3 and TYK2
How it was run: as §1

T3 sequence (O60674 849-1124 limits assumed): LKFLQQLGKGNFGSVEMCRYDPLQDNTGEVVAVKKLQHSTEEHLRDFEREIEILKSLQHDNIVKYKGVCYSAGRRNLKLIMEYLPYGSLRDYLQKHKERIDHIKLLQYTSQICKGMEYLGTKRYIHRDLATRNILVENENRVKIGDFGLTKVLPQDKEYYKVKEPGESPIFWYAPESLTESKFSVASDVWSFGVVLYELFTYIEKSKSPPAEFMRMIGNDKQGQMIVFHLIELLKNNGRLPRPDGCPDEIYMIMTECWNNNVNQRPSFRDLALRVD
T4 sequence (P52333 822-1111 limits assumed): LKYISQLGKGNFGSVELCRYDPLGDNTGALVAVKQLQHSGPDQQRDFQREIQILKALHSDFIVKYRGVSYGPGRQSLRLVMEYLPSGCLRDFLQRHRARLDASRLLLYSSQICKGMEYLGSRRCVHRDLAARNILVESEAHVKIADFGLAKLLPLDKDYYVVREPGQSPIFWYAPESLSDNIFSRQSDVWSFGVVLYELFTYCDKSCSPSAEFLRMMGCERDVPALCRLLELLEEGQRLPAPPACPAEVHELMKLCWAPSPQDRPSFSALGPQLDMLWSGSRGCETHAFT
T2 sequence (P23458 875-1153 limits assumed): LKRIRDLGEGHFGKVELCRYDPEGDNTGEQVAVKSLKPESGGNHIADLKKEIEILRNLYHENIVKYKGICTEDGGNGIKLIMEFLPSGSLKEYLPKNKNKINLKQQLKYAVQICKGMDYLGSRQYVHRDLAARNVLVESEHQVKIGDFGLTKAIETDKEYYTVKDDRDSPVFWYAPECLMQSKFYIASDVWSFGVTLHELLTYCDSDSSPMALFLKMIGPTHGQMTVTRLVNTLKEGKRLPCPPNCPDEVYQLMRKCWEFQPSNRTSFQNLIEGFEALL

SMILES	IC50 ([1]; TYK2 JH1, ADP-Glo)	IC50 ([2]; JAK1 JH1, ADP-Glo)	IC50 ([3]; JAK2 JH1, ADP-Glo)	IC50 ([4]; JAK3 JH1, ADP-Glo)	IC50 ([1]; JH1 kinase domain, ADP-Glo)	IC50 ([2]; JH1 kinase domain, ADP-Glo)	IC50 ([3]; JH1 kinase domain, ADP-Glo)	IC50 ([4]; JH1 kinase domain, ADP-Glo)
C[C@@H]1CN(c2nc(-c3ccc(F)nc3)cn3nccc23)C(=O)[C@]1(C#N)C1CC1 [Example 243, (3R,4S)-3-cyclopropyl-1-(6-(6-fluoropyridin-3-yl)pyrazolo[1,5-a]pyrazin-4-yl)-4-methyl-2-oxopyrrolidine-3-carbonitrile trifluoroacetate]	> 0.1 µM	1 to 5 µM	> 10 µM	1 to 5 µM				
Cn1cc(-c2cc3c(N4CC[C@@H](C5CC5)C4=O)ccnn3c2)cn1 (single isomer, unassigned) [Example 37]					> 0.1 µM	> 10 µM	1 to 5 µM	1 to 5 µM
C[C@@H]1CN(c2nc(-c3ncc[nH]3)cn3nccc23)C(=O)[C@]1(C#N)C1CC1 [Example 247, (3R,4S)-1-(6-(1H-imidazol-2-yl)pyrazolo[1,5-a]pyrazin-4-yl)-3-cyclopropyl-4-methyl-2-oxopyrrolidine-3-carbonitrile trifluoroacetate]	> 0.1 µM	> 10 µM	> 10 µM	> 10 µM				
C[C@@H]1CN(c2nc(-c3cccnc3)cn3ncc(F)c23)C(=O)[C@]1(C#N)C1CC1 [Example 222, (3R,4S)-3-cyclopropyl-1-(3-fluoro-6-(pyridin-3-yl)pyrazolo[1,5-a]pyrazin-4-yl)-4-methyl-2-oxopyrrolidine-3-carbonitrile]	0.05 to 0.1 µM	1 to 5 µM	1 to 5 µM	0.1 to 1 µM				
COc1cncc(-c2cc3c(N4C[C@@H](C)[C@@](C#N)(C5CC5)C4=O)ccnn3c2)n1 [Example 126, (3R,4S)-3-cyclopropyl-1-(6-(6-methoxypyrazin-2-yl)pyrrolo[1,2-b]pyridazin-4-yl)-4-methyl-2-oxopyrrolidine-3-carbonitrile trifluoroacetate]					0.02 to 0.05 µM	0.1 to 1 µM	0.1 to 1 µM	0.1 to 1 µM
C[C@@H]1CN(c2ccnn3cc(-c4ccnn4C)cc23)C(=O)[C@]1(C#N)C1CC1 [Example 49, (3R,4S)-3-cyclopropyl-4-methyl-1-(6-(1-methyl-1H-pyrazol-5-yl)pyrrolo[1,2-b]pyridazin-4-yl)-2-oxopyrrolidine-3-carbonitrile]					0.02 to 0.05 µM	0.1 to 1 µM	1 to 5 µM	1 to 5 µM
C[C@@H]1CN(c2ccnn3cc(-c4cnn(C)c4)cc23)C(=O)[C@]1(C#N)C1COC1 [Example 20, (3S,4S)-4-methyl-1-(6-(1-methyl-1H-pyrazol-4-yl)pyrrolo[1,2-b]pyridazin-4-yl)-3-(oxetan-3-yl)-2-oxopyrrolidine-3-carbonitrile]					> 0.1 µM	> 10 µM	5 to 10 µM	> 10 µM
C[C@@H]1CN(c2ccnn3cc(-c4cccc5nccn45)cc23)C(=O)[C@]1(C#N)C1CC1 [Example 141, (3R,4S)-3-cyclopropyl-1-(6-(imidazo[1,2-a]pyridin-5-yl)pyrrolo[1,2-b]pyridazin-4-yl)-4-methyl-2-oxopyrrolidine-3-carbonitrile trifluoroacetate]					0.02 to 0.05 µM	1 to 5 µM	1 to 5 µM	1 to 5 µM
COc1ncccc1-c1cn2nccc2c(N2C[C@@H](C)[C@@](C#N)(C3CC3)C2=O)n1 [Example 250, (3R,4S)-3-cyclopropyl-1-(6-(2-methoxypyridin-3-yl)pyrazolo[1,5-a]pyrazin-4-yl)-4-methyl-2-oxopyrrolidine-3-carbonitrile]	0.02 to 0.05 µM	0.1 to 1 µM	1 to 5 µM	1 to 5 µM				
COc1ncc(-c2cn3nccc3c(N3C[C@@H](C)[C@@](C#N)(C4CC4)C3=O)n2)cn1 [Example 240, (3R,4S)-3-cyclopropyl-1-(6-(2-methoxypyrimidin-5-yl)pyrazolo[1,5-a]pyrazin-4-yl)-4-methyl-2-oxopyrrolidine-3-carbonitrile trifluoroacetate]	> 0.1 µM	> 10 µM	> 10 µM	> 10 µM				
C[C@@H]1CN(c2cccn3nc(-c4cnn(C)c4)cc23)C(=O)[C@]1(C#N)C1CC1 [Example 272, (3R,4S)-3-cyclopropyl-4-methyl-1-(2-(1-methyl-1H-pyrazol-4-yl)pyrazolo[1,5-a]pyridin-4-yl)-2-oxopyrrolidine-3-carbonitrile]	> 0.1 µM	> 10 µM	> 10 µM	> 10 µM				
Cn1cc(-c2cc3c(N4CC[C@](C#N)(C5COC5)C4=O)ccnn3c2)cn1 (single isomer, unassigned) [Example 44]					> 0.1 µM	> 10 µM	> 10 µM	> 10 µM
C[C@@H]1CN(c2ccnn3cc(-c4nnc5n4CCCC5)cc23)C(=O)[C@]1(C#N)C1CC1 [Example 105, (3R,4S)-3-cyclopropyl-4-methyl-2-oxo-1-(6-(5,6,7,8-tetrahydro-[1,2,4]triazolo[4,3-a]pyridin-3-yl)pyrrolo[1,2-b]pyridazin-4-yl)pyrrolidine-3-carbonitrile trifluoroacetate]					> 0.1 µM	> 10 µM	1 to 5 µM	5 to 10 µM
C[C@@H]1CN(c2ccnn3cc(-c4cncc(OC(F)F)c4)cc23)C(=O)[C@]1(C#N)C1CC1 [Example 177, (3R,4S)-3-cyclopropyl-1-(6-(5-(difluoromethoxy)pyridin-3-yl)pyrrolo[1,2-b]pyridazin-4-yl)-4-methyl-2-oxopyrrolidine-3-carbonitrile]					0.02 to 0.05 µM	0.1 to 1 µM	1 to 5 µM	1 to 5 µM
C[C@@H]1CN(c2ccnc3cc(-c4cnn(C)c4)nn23)C(=O)[C@]1(C#N)C1CC1 [Example 273, (3R,4S)-3-cyclopropyl-4-methyl-1-(2-(1-methyl-1H-pyrazol-4-yl)pyrazolo[1,5-a]pyrimidin-7-yl)-2-oxopyrrolidine-3-carbonitrile]	> 0.1 µM	5 to 10 µM	> 10 µM	5 to 10 µM				
C[C@@H]1CN(c2ccnn3cc(-c4cncc(C#N)n4)cc23)C(=O)[C@]1(C#N)C1CC1 [Example 133, 6-(4-((3R,4S)-3-cyano-3-cyclopropyl-4-methyl-2-oxopyrrolidin-1-yl)pyrrolo[1,2-b]pyridazin-6-yl)pyrazine-2-carbonitrile trifluoroacetate]					0.02 to 0.05 µM	1 to 5 µM	1 to 5 µM	1 to 5 µM
C[C@@H]1CN(c2ccnn3c(F)c(-c4cnn(C)c4)nc23)C(=O)[C@]1(C#N)C1CC1 [Example 183, (3R,4S)-3-cyclopropyl-1-(3-fluoro-2-(1-methyl-1H-pyrazol-4-yl)imidazo[1,2-b]pyridazin-8-yl)-4-methyl-2-oxopyrrolidine-3-carbonitrile]					> 0.1 µM	> 10 µM	> 10 µM	> 10 µM
Cn1cc(-c2cc3c(N4CC[C@](C)(C#N)C4=O)ccnn3c2)cn1 (single isomer, unassigned) [Example 39]					> 0.1 µM	> 10 µM	> 10 µM	> 10 µM
C[C@@H]1CN(c2ccnn3cc(-c4ncc(C#N)s4)cc23)C(=O)[C@]1(C#N)C1CC1 [Example 117, 2-(4-((3R,4S)-3-cyano-3-cyclopropyl-4-methyl-2-oxopyrrolidin-1-yl)pyrrolo[1,2-b]pyridazin-6-yl)thiazole-5-carbonitrile trifluoroacetate]					0.02 to 0.05 µM	1 to 5 µM	1 to 5 µM	1 to 5 µM
C[C@H]1C[C@@](C#N)(C2CC2)C(=O)N1c1ccnn2cc(-c3cnn(C)c3)cc12 [Example 31, (3S,5S)-3-cyclopropyl-5-methyl-1-(6-(1-methyl-1H-pyrazol-4-yl)pyrrolo[1,2-b]pyridazin-4-yl)-2-oxopyrrolidine-3-carbonitrile]					> 0.1 µM	> 10 µM	> 10 µM	> 10 µM
Cc1cc(-c2cc3c(N4C[C@@H](C)[C@@](C#N)(C5CC5)C4=O)ccnn3c2)ncc1C#N [Example 144, 6-(4-((3R,4S)-3-cyano-3-cyclopropyl-4-methyl-2-oxopyrrolidin-1-yl)pyrrolo[1,2-b]pyridazin-6-yl)-4-methylnicotinonitrile trifluoroacetate]					0.02 to 0.05 µM	1 to 5 µM	1 to 5 µM	1 to 5 µM
COc1cccnc1-c1cc2c(N3C[C@@H](C)[C@@](C#N)(C4CC4)C3=O)ccnn2c1 [Example 146, (3R,4S)-3-cyclopropyl-1-(6-(3-methoxypyridin-2-yl)pyrrolo[1,2-b]pyridazin-4-yl)-4-methyl-2-oxopyrrolidine-3-carbonitrile trifluoroacetate]					> 0.1 µM	1 to 5 µM	5 to 10 µM	5 to 10 µM
Cc1nc(-c2cc3c(N4C[C@@H](C)[C@@](C#N)(C5CC5)C4=O)ccnn3c2)ccc1F [Example 147, (3R,4S)-3-cyclopropyl-1-(6-(5-fluoro-6-methylpyridin-2-yl)pyrrolo[1,2-b]pyridazin-4-yl)-4-methyl-2-oxopyrrolidine-3-carbonitrile trifluoroacetate]					0.005 to 0.02 µM	0.1 to 1 µM	0.1 to 1 µM	0.1 to 1 µM
